Assay results: PubChem BioAssay AID1996
≈ marks a conversion by molar mass, not a printed value.

Conditions: buffer; pH 7.4; 200.0 µM

Row | Compound | solubility kinetic [µg/mL]
1 | COc1ccccc1CNC(=O)COC(=O)Cc1cccc(F)c1 | > 49.7
2 | Clc1ccc(CN2CCN(c3ccccc3)CC2)cn1 | 21 (≈ 73 µM)
3 | Cc1ccc(C)c(NC(=O)CN(C)C(=O)c2ccc(Cl)nc2)c1 | > 49.8
4 | N#CCCN(C(=O)COC(=O)CCC(=O)c1cccs1)c1ccccc1 | > 55.6
5 | Cc1ccc(N2C(=O)CN(Cc3ccccc3)C2=S)cc1C | 0.3 (≈ 0.966 µM)
6 | Cc1ccccc1CC(=O)NC1CCCc2ccccc21 (stereo not drawn) | 2.7 (≈ 9.66 µM)
7 | Cc1ccc[n+](C(C)C(=O)c2ccc(Cl)cc2)c1.[Br-] (stereo not drawn) | 44.9
8 | Cc1nc(Cl)sc1C(=O)Nc1ccc(C(C)(C)C)cc1 | 11.3 (≈ 36.6 µM)
9 | O=S(=O)(NCCc1ccccc1)c1ccc(F)cc1 | 40.9 (≈ 146 µM)
10 | O=C(Nc1cc(S(=O)(=O)N2CCCC2)ccc1Cl)c1cc(F)c(F)c(F)c1F | 17.7 (≈ 40.5 µM)
11 | CC(SCC(=O)Nc1ccccc1Br)c1nc2ccccc2c(=O)[nH]1 (stereo not drawn) | 3.2 (≈ 7.65 µM)
12 | C/C(=N\Nc1ccc2nncn2n1)c1cccs1 | > 38.7
13 | COc1cc(NC(=S)N2CCN(C)CC2)cc(OC)c1 | > 44.3
14 | O=C(Nc1nc2cc3c(cc2s1)OCO3)C1CCCCC1 | < 0.3
15 | Cc1cc(NC(=O)CC(C)C)c(=O)n(Cc2cccc(F)c2)c1 | 43.7 (≈ 138 µM)
16 | COc1ccccc1N1CCN(C(=O)c2cccc(S(=O)(=O)Nc3ccccc3F)c2)CC1.Cl | > 75.9
17 | NC(=NCc1ccco1)NC(=O)c1ccc(Cl)cc1 | > 41.7
18 | O=C(NCc1ccco1)Nc1ccc([N+](=O)[O-])cc1 | 16.5 (≈ 63.2 µM)
19 | O=C(CO/N=C/c1ccc(OC(F)F)cc1)NC1CCCC1 | > 46.8
20 | Cn1c(N)c(C(=O)COC(=O)COc2cc(Cl)c(Cl)cc2Cl)c(=O)n(C)c1=O | 4 (≈ 8.88 µM)
21 | Cc1ccc(N2C(=O)CCC2=O)c(C)c1 | 28 (≈ 138 µM)
22 | COc1cc(SC)ccc1C(=O)N(Cc1ccccc1)c1ccccc1 | 6.3 (≈ 17.3 µM)
23 | O=C(CSCc1ccccc1F)NCc1ccc(F)cc1 | > 46.1
24 | CCC(=O)c1c[nH]c(C(=O)NCc2cccc(C(F)(F)F)c2)c1 | < 0.4

Row | Compound | solubility kinetic [µg/mL]
25 | O=C(Nc1ccccc1Br)c1cccc2ccccc12 | < 0.7
26 | Cc1cc(C)cc(C(=O)NCc2ccc3c(c2)OCO3)c1 | 5.8 (≈ 20.5 µM)
27 | CCOc1ccc(CCNC(=O)C2(c3ccccc3)CC2)cc1OCC | > 53
28 | CC(C)OCCCNC(=O)Nc1cccc2ccccc12 | > 43
29 | Cc1ccc(NC(=O)C2C3CCCCC32)cc1[N+](=O)[O-] (stereo not drawn) | 0.5 (≈ 1.82 µM)
30 | O=[N+]([O-])c1cccc(NC(=S)N2CCN(c3ccccn3)CC2)c1 | 1.2 (≈ 3.49 µM)
31 | COc1ccc(OC)c2sc(N(CCN(C)C)C(=O)c3ccc4ccccc4c3)nc12.Cl | 8.6
32 | Cc1cccc(C(=O)NCC(=O)N2CCN(c3ccccn3)CC2)c1 | > 50.8
33 | Cn1c(N)c(C(=O)COC(=O)c2cc3ccccc3cc2O)c(=O)n(C)c1=O | 3.6 (≈ 9.39 µM)
34 | CCC(C)c1ccc(C(C)NC(=S)NCc2ccc(F)cc2)cc1 (stereo not drawn) | < 0.4
35 | O=C(NC(=S)/C(=C1\CCCCCN1)[N+](=O)[O-])c1ccccc1 | 44.9 (≈ 141 µM)
36 | CC(C(=O)NC1CCCCC1)N1C(=O)c2cccc3cccc1c23 (stereo not drawn) | 3.5 (≈ 10.9 µM)
37 | O=S(=O)(Nc1ccncc1)c1cc(Cl)ccc1Cl | 21.2 (≈ 69.9 µM)
38 | O=C(O)CCN1C(=O)c2ccc(Oc3ccc([N+](=O)[O-])cc3)cc2C1=O | 52.9 (≈ 148 µM)
39 | NC(=Nc1ccc(Cl)cc1)c1ccccc1 | > 34.6
40 | Cc1ccc(NC(=O)c2ccc3c(c2)OCO3)cc1Cl | 0.9 (≈ 3.11 µM)
41 | COc1ccccc1OCC(=O)OCC(=O)NC1CCCCC1 | > 48.2
42 | O=C(Nc1ccc(Cl)c(S(=O)(=O)N2CCOCC2)c1)c1cc2ccccc2oc1=O | 2.4 (≈ 5.35 µM)
43 | CC1CN(C2=N/C(=C/c3ccc4c(c3)OCO4)C(=O)N2)CC(C)O1 (stereo not drawn) | 24.7 (≈ 75 µM)
44 | CCCc1cc(=O)[nH]c(SCC(=O)Nc2cc(S(=O)(=O)N3CCOCC3)ccc2Cl)n1 | 63.8 (≈ 131 µM)
45 | COc1cc2c(cc1OC)CN(CC(=O)NC(=O)NC1CCCCC1)CC2 | > 56.3
46 | CN1CCC(=NOc2ccc([N+](=O)[O-])cc2)CC1 | > 37.4
47 | Cc1ccc(/C=C2\C(=O)NC(=S)N(c3ccc(F)cc3)C2=O)o1 | 45.9 (≈ 139 µM)
48 | O=C(CCNC(=O)c1ccco1)Nc1ccc(OC(F)F)cc1 | 43.6 (≈ 134 µM)

Row | Compound | solubility kinetic [µg/mL]
49 | O=C1/C(=C\c2ccc(O)c(O)c2)N=C2CCCCCN12 | > 40.8
50 | COc1ccccc1C(=O)OCC(=O)NC(=O)NC1CCCC1 | > 48.1
51 | O=C(O)c1cccc(Nc2ccc3nonc3c2[N+](=O)[O-])c1 | 35.9 (≈ 120 µM)
52 | CCOc1ccc(NC(=O)CN2C(=O)C(C)SC(C)C2=O)cc1 (stereo not drawn) | 34.8 (≈ 103 µM)
53 | Cc1ccc(Cn2c(=O)c3c(ncn3C)n(C)c2=O)cc1 | > 42.6
54 | CN(C(=O)c1ccc(Br)o1)C1(C)CCS(=O)(=O)C1 (stereo not drawn) | > 50.4
55 | CC(C)(C)NC(=S)NC1CC1 | 25.8 (≈ 150 µM)
56 | CCN(CC(=O)N1CCCC1)S(=O)(=O)c1ccc(OC)cc1 | 44.7 (≈ 137 µM)
57 | O=C(c1ccccc1)n1c(=O)c(F)cn(COCCBr)c1=O | > 55.7
58 | CS(=O)(=O)CC(=O)Nc1ccc2nc3n(c(=O)c2c1)CCCCC3 | 43.2 (≈ 124 µM)
59 | C=CCOc1cccc(C(=O)NC(c2ccccc2)C(C)C)c1 (stereo not drawn) | 1.2 (≈ 3.88 µM)
60 | O=C(CSCc1ccc(F)cc1)NCc1ccc(F)cc1 | 44 (≈ 143 µM)
61 | N#Cc1ccccc1NC(=O)CN1CCN(Cc2ccccc2)CC1 | > 50.2
62 | Cc1ccc(NS(=O)(=O)c2ccc3c(c2)oc(=O)n3C)cc1 | 1.6 (≈ 5.03 µM)
63 | O=C(Cc1ccccc1)Nc1ccc(NC(=O)c2ccccc2)c(Cl)c1 | 2.3 (≈ 6.3 µM)
64 | COC1=C(N)C(=O)c2nc(-c3nc(C(=O)O)c(C)c(-c4ccc(OC)c(OC)c4O)c3N)ccc2C1=O | 74.9 (≈ 148 µM)
65 | CCOC(=O)Cn1nc(C)n(-c2c(C)cccc2C)c1=O | > 43.4
66 | O=C1CSC(c2cccc(O)c2)N1Cc1ccccc1 (stereo not drawn) | > 42.8
67 | CCOc1ccccc1NC(=O)c1ccccc1-c1ccccc1 | 8.5 (≈ 26.8 µM)
68 | O=C(CN1c2cccc3cccc(c23)S1(=O)=O)N1CCN(c2ccccc2)CC1 | 3.4 (≈ 8.34 µM)
69 | O=C(Nc1cccnc1)OCc1ccccc1 | 23 (≈ 101 µM)
70 | COc1cc2nc(C(C)(C)C)oc(=O)c2cc1OC | > 39.5
71 | Cl.NS(=O)(=O)c1ccc(CCNCc2cccnc2)cc1 | 40.5
72 | COc1ccccc1N1CCN(C(=O)c2c(-c3c(F)cccc3Cl)noc2C)CC1 | 52.9 (≈ 123 µM)

Row | Compound | solubility kinetic [µg/mL]
73 | Cc1ccc(OCc2ccc(C(=O)N3CCCC3)o2)cc1C | 31.8 (≈ 106 µM)
74 | CC(=O)Nc1ccc(OC(=O)N(C)c2ccc(C)cc2)cc1 | > 44.8
75 | CC(C)CCNC(=O)NC(=O)CSc1ncccn1 | 28.9 (≈ 102 µM)
76 | CN(CC(=O)Nc1ccccc1Cl)C(=O)COC(=O)c1ccc([N+](=O)[O-])s1 | > 61.8
77 | O=C(COC(=O)c1ccc(Cl)nc1)NCCC1=CCCCC1 | 36.6 (≈ 113 µM)
78 | Fc1ccc(NC(=S)NCCN2CCOCC2)c(F)c1F | > 47.9
79 | COC(=O)c1sccc1NC(=O)Nc1ccc(OC)cc1 | 40 (≈ 131 µM)
80 | Cc1nnc(NS(=O)(=O)c2ccc(N)cc2)s1 | > 40.5
81 | COc1ccc(CC2SC(=Nc3ccc(F)cc3)NC2=O)cc1 (stereo not drawn) | 2.3 (≈ 6.96 µM)
82 | CCN(CC)C(=O)c1ccccc1NC(=O)c1ccccc1 | > 44.5
83 | COc1ccccc1-c1nc2ccc(Cl)cc2c(=O)n1O | > 45.4
84 | CCC(=O)Nc1ccc(OCC2CCCO2)cc1 (stereo not drawn) | 35.6 (≈ 143 µM)
85 | COc1ccc(NC(=S)NCc2ccc(F)cc2)cc1 | > 43.6
86 | CC1CN(C(=O)Cn2c(=O)oc3ccccc32)CC(C)O1 (stereo not drawn) | 43.1 (≈ 148 µM)
87 | CCC(C(=O)Nc1c(C)cc(C)cc1C)N1CCCCCC1 (stereo not drawn) | 41 (≈ 136 µM)
88 | COC(=O)c1cc(S(=O)(=O)Nc2ccc(C)cn2)c[nH]1 | 43.9 (≈ 149 µM)
89 | COC(=O)c1sc(SC)c(S(=O)(=O)C(C)C)c1N | 3.8 (≈ 12.3 µM)
90 | CCOC(=O)c1cccc(NC(=O)c2ccccc2C)c1 | 33.1 (≈ 117 µM)
91 | c1cncc(Nc2c3ccccc3nc3ccccc23)c1 | 2 (≈ 7.37 µM)
92 | O=[N+]([O-])c1ccc(NC(=S)N2CCN(c3ccccn3)CC2)cc1 | 1.4 (≈ 4.08 µM)
93 | COc1ccc(CC(=O)Nc2ccc(OC(C)=O)cc2C(=O)O)cc1 | > 51.5
94 | CCOC(=O)Cc1nc(-c2cccc(C(F)(F)F)c2)no1 | 7.6 (≈ 25.3 µM)
95 | O=C(CN1CCOCC1)Nc1ccccc1C(=O)Nc1ccccc1 | 39.1 (≈ 115 µM)
96 | O=c1[nH]snc1N1CCOCC1 | > 28.1

Row | Compound | solubility kinetic [µg/mL]
97 | COCCCNC(=S)Nc1cccc(SC)c1 | > 40.6
98 | COc1c(C)cc(C(=O)C2CCCN(C3CCOCC3)C2)cc1C (stereo not drawn) | > 49.7
99 | CC1CC(C)(C)NC(=S)N1CCC(=O)N1CCc2ccccc2C1 (stereo not drawn) | 38.8 (≈ 112 µM)
100 | CC1SCC(NC(=O)c2cccc(Cl)c2)CS1 (stereo not drawn) | > 43.2
101 | CCn1c(NC(=O)C(C)C)c(-c2ccccc2)c(=O)c2ccccc21 | 30.9 (≈ 92.4 µM)
102 | Cc1ccc(NC(=O)NCCN2CCCCC2)cc1 | > 39.2
103 | O=C(NCc1ccccn1)Nc1cc(Cl)cc(Cl)c1 | 40.8 (≈ 138 µM)
104 | COc1ccc(CN(C)C(=O)Cc2ccsc2)c(OC)c1OC | 35.2 (≈ 105 µM)
105 | O=C(O)[C@H]1Cc2ccccc2CN1S(=O)(=O)c1ccc(F)cc1 | > 50.3
106 | COCCN1C2=C(COC(C)(C)C2)C(=S)NC1c1ccccc1 (stereo not drawn) | > 49.9
107 | O=S(=O)(NCCCN1CCOCC1)c1ccc(Cl)cc1 | > 47.8
108 | COc1ccc(S(=O)(=O)Nc2ccc3c(c2)n(C)c(=O)n3C)cc1C | > 54.2
109 | CC(C)C(=O)Nc1cc(S(=O)(=O)N2CCOCC2)ccc1N1CCCCC1 | 49 (≈ 124 µM)
110 | C#Cc1cccc(NC(=O)Cc2cccs2)c1 | > 36.2
111 | NC(=O)c1cc[n+](Cc2ccccc2Cl)cc1.[Br-] | > 49.1
112 | CC(C)NCc1nnc(-c2ccc(Cl)cc2)o1 | > 37.8
113 | O=C(CSc1ncccn1)NC1CCS(=O)(=O)C1 (stereo not drawn) | 39.7 (≈ 138 µM)
114 | CCCC(=O)Nc1sc(Cc2ccccc2)c(C)c1C(N)=O | 6.9 (≈ 21.8 µM)
115 | CC(=O)c1ccc(NC(=O)C[n+]2cccc(C)c2)cc1.[Cl-] | > 45.7
116 | N/C(=N\O)c1ccc(Oc2ccccc2Cl)c([N+](=O)[O-])c1 | 44.1 (≈ 143 µM)
117 | CCOc1cc(C(=O)N=c2sccn2C)ccc1OC(F)F | 45.4 (≈ 138 µM)
118 | O=C(COC(=O)c1cc(Cl)ccc1O)Nc1ccccc1C(=O)NC1CC1 | 2 (≈ 5.14 µM)
